The results in this text go back to PubChem BioAssay (NCI).

Among the test systems are 786-0 renal; SR leukemia; HL-60(TB) leukemia; U251 CNS; UACC-257 melanoma; T-47D breast; SF-539 CNS; COLO 205 colon; MCF7 breast; HT29 colon.
Holding throughout (experiment): NCI tumour cell line growth inhibition, 48 h

Values joined by “and” are separate entries in the source; they are usually repeats but may differ in a detail not shown here. Equal entries are not always repeated.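 In this assay, cells in 96-well plates receive the compound at five concentrations for 48 hours. Endpoints are linearly interpolated between the surrounding concentrations. GI50: concentration for 50% inhibition of growth. TGI denotes the concentration required for complete inhibition of growth.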

Regarding `COc1ccc(CN2C(=O)/C(=C\C(=O)c3ccc(OCCN4CCCCC4)cc3)c3ccccc32)cc1`, the GI50 with 786-0 renal was 1.66 µM; in the test with SR leukemia it was 2.04 µM; with HL-60(TB) leukemia, 2.35 µM; in the test with U251 CNS, 2.24 µM; in the test with UACC-257 melanoma, 16.8 µM; in the test with T-47D breast, 1.64 µM. Further, the GI50 in the test with SF-539 CNS was 1.9 µM; in the test on COLO 205 colon, 1.86 µM; in the test with MCF7 breast it was 1.85 µM; in the test with HT29 colon it was 1.8 µM. Besides, the TGI came to 3.11 µM in the test with 786-0 renal; 7.4 µM in the test on SR leukemia; 6.43 µM in the test on HL-60(TB) leukemia; 5.15 µM in the test with U251 CNS; 30.8 µM with UACC-257 melanoma; 3.29 µM with T-47D breast. The TGI in the test with SF-539 CNS was found to be 3.67 µM; in the test with COLO 205 colon, 3.97 µM; in the test on MCF7 breast it was 4.6 µM; in the test with HT29 colon, 3.57 µM.
On to `O=C(Cc1ccc(/C=C/C(=O)c2ncc[nH]2)cc1)Nc1cc(F)c(F)c(F)c1`, for which the GI50 was 3.08 µM with 786-0 renal; 2.16 µM with SR leukemia; 4.28 µM in the test with HL-60(TB) leukemia; 0.992 µM with U251 CNS; 4.49 µM in the test on UACC-257 melanoma; 2.91 µM in the test with T-47D breast. Further, the GI50 was 3.56 µM with SF-539 CNS, 4.08 µM in the test on COLO 205 colon, 2.38 µM with MCF7 breast and 0.861 µM in the test on HT29 colon. The TGI in the test on 786-0 renal worked out at 6.32 µM; with SR leukemia, 13.3 µM; in the test with HL-60(TB) leukemia, 11.2 µM; in the test on U251 CNS, 3.8 µM; in the test on UACC-257 melanoma, 11.9 µM; in the test with T-47D breast, 10.5 µM. Besides, the TGI stood at 6.95 µM in the test with SF-539 CNS, 9.4 µM in the test with COLO 205 colon, 7.76 µM in the test with MCF7 breast and 4.17 µM in the test on HT29 colon.
`CCN(CC)CCCC(CNc1ccnc2cc(Cl)ccc12)c1ccc(Cl)cc1` (stereo not given): the GI50 is 1.43 µM and 1.57 µM in the test with 786-0 renal; 0.337 µM and 0.307 µM in the test on SR leukemia; 1.75 µM and 1.52 µM in the test with HL-60(TB) leukemia; 1.54 µM and 0.95 µM in the test with U251 CNS; 1.97 µM and 0.583 µM in the test on UACC-257 melanoma; 1.64 µM and 2.06 µM in the test with T-47D breast. The GI50 with SF-539 CNS is 1.23 µM and 1.52 µM; with COLO 205 colon, 1.38 µM and 0.212 µM; in the test on MCF7 breast it was 1.31 µM and 1.24 µM; in the test with HT29 colon it was 0.484 µM and 0.304 µM. For the same compound, the TGI is 2.85 µM and 2.97 µM in the test on 786-0 renal; 1.38 µM and 1.09 µM with SR leukemia; 3.79 µM and 3.62 µM in the test with HL-60(TB) leukemia; 3.01 µM and 2.48 µM in the test with U251 CNS; 3.74 µM and 1.61 µM with UACC-257 melanoma; 3.42 µM and 4.02 µM in the test on T-47D breast. Besides, the TGI in the test with SF-539 CNS is 2.67 µM and 3.07 µM; with COLO 205 colon it was 2.94 µM and 0.466 µM; with MCF7 breast, 3.15 µM and 2.71 µM; with HT29 colon, 2.35 µM and 1.28 µM.
Turning to `CCN(CC)c1ccc2c(c1)OC(N)=C(C#N)C2c1cc(OC)c2c(c1)OCO2` (stereo not given), the GI50 in the test with 786-0 renal was 0.0438 µM; in the test with SR leukemia it was below 0.017 µM; with HL-60(TB) leukemia, 0.0269 µM; in the test with U251 CNS, 0.0408 µM; with UACC-257 melanoma, 0.312 µM; in the test with T-47D breast, 3.32 µM. Further, the GI50 in the test with SF-539 CNS is 0.0271 µM; with COLO 205 colon it was 0.0377 µM; with MCF7 breast, 0.0294 µM; in the test with HT29 colon, 0.0317 µM. For the same compound, the TGI was 3.16 µM in the test on 786-0 renal; 1.98 µM in the test with SR leukemia; 0.141 µM in the test on HL-60(TB) leukemia; 2.38 µM in the test on U251 CNS; 14.5 µM in the test with UACC-257 melanoma; 22 µM in the test with T-47D breast. In addition, the TGI in the test on SF-539 CNS is 0.0806 µM; with COLO 205 colon, 0.424 µM; with MCF7 breast it was 11.5 µM; with HT29 colon, 0.309 µM.
On to `COc1cc(C#CC(=O)OC/C=C/c2ccc3c(c2)OCO3)cc(OC)c1OC`, for which the TGI with 786-0 renal was above 100 µM; in the test on SR leukemia, 40.5 µM; in the test with HL-60(TB) leukemia it was 62.9 µM; with U251 CNS it was above 100 µM; with UACC-257 melanoma, 70.9 µM; with T-47D breast it was above 100 µM. For the same compound, the TGI in the test with SF-539 CNS was 44.5 µM; in the test with COLO 205 colon, 35.7 µM; in the test on MCF7 breast it was 64.8 µM; in the test on HT29 colon, above 100 µM.
Turning to `O=C(CNc1ccc(Cl)cc1)Nc1ccc(-c2nc3ccccc3s2)cc1`, the GI50 in the test on 786-0 renal is 1.9 µM; in the test on SR leukemia, 1.43 µM; with HL-60(TB) leukemia, 2.23 µM; in the test on U251 CNS, 5.24 µM; in the test with UACC-257 melanoma, 7.7 µM; with T-47D breast, 5.2 µM. For the same compound, the GI50 was 4.93 µM in the test on SF-539 CNS, 3.49 µM in the test on COLO 205 colon, 0.0697 µM in the test with MCF7 breast and 3.8 µM with HT29 colon. For the same compound, the TGI with 786-0 renal is 4.03 µM; with SR leukemia, above 24 µM; in the test on HL-60(TB) leukemia, 6.05 µM; with U251 CNS, 10.8 µM; with UACC-257 melanoma, 21.6 µM; in the test with T-47D breast, 16.6 µM. The TGI with SF-539 CNS worked out at 9.79 µM; in the test on COLO 205 colon, 10.2 µM; in the test on MCF7 breast, 6.5 µM; with HT29 colon, 11.4 µM.
Turning to `CC(=O)c1cccc(NC(=O)C(=O)NNc2n[nH]c(=S)n2N)c1`, the TGI with 786-0 renal was 25.5 µM; with SR leukemia, 16.1 µM; with HL-60(TB) leukemia it was 32.1 µM; with U251 CNS, 12 µM; with UACC-257 melanoma, 9.17 µM; with T-47D breast, 13.6 µM. Moreover, the TGI came to 18.6 µM with SF-539 CNS, 27.9 µM in the test on COLO 205 colon, 18.7 µM in the test on MCF7 breast and 31.8 µM in the test on HT29 colon.
In the case of `COc1ccc2c(c1)CCCC(Br)C2=O` (stereo not given), the TGI in the test on 786-0 renal was above 30 µM; in the test on SR leukemia, 24.6 µM; with HL-60(TB) leukemia, 16.9 µM; in the test with U251 CNS it was 29.6 µM; in the test with UACC-257 melanoma it was 32.1 µM; in the test on T-47D breast, above 100 µM. Besides, the TGI is above 19.9 µM in the test with SF-539 CNS, 10.9 µM in the test on COLO 205 colon, 15.1 µM with MCF7 breast and 20.2 µM with HT29 colon.
